According to the NIST ThermoML archive (doi:10.1016/j.jct.2014.05.019):
± gives the expanded uncertainty stated by the source.

Legend:
[1] = cn = amount concentration of the nth substance listed, in mol/dm3; conditions: 100 kPa, Liquid, Alternating current cell with electrodes, c1 = 0.1
[2] = refractive index (Na D-line) (dimensionless); conditions: 101.33 kPa, Liquid, Standard Abbe refractometry
[3] = 101.33 kPa, Liquid; for viscosity: Falling or rolling sphere viscometry; for mass density: Vibrating tube method

Compound: [Cl-].[K+] [potassium chloride] + O
- electrical conductivity ([1]; 288.15 K): 1.05 ± 0.1 S/m
- electrical conductivity ([1]; 293.15 K): 1.16 ± 0.1 S/m
- electrical conductivity ([1]; 295.15 K): 1.21 ± 0.1 S/m
- electrical conductivity ([1]; 297.15 K): 1.26 ± 0.1 S/m
- electrical conductivity ([1]; 298.15 K): 1.29 ± 0.1 S/m
- electrical conductivity ([1]; 299.15 K): 1.31 ± 0.1 S/m
- electrical conductivity ([1]; 301.15 K): 1.36 ± 0.1 S/m
- electrical conductivity ([1]; 303.15 K): 1.41 ± 0.1 S/m
- electrical conductivity ([1]; 308.15 K): 1.54 ± 0.1 S/m
- electrical conductivity ([1]; 313.15 K): 1.67 ± 0.1 S/m
- electrical conductivity ([1]; 318.15 K): 1.8 ± 0.1 S/m
- electrical conductivity ([1]; 323.15 K): 1.91 ± 0.1 S/m

Compound: O [water]
- refractive index ([2]; 298.15 K): 1.33247 ± 0.00031
- refractive index ([2]; 303.15 K): 1.33188 ± 0.00031
- refractive index ([2]; 308.15 K): 1.33124 ± 0.00031
- refractive index ([2]; 313.15 K): 1.33053 ± 0.00031
- refractive index ([2]; 318.15 K): 1.32974 ± 0.00031
- refractive index ([2]; 323.15 K): 1.3289 ± 0.00031
- refractive index ([2]; 328.15 K): 1.32799 ± 0.00031
- refractive index ([2]; 333.15 K): 1.32704 ± 0.00031
- refractive index ([2]; 338.15 K): 1.32605 ± 0.00031
- refractive index ([2]; 343.15 K): 1.32503 ± 0.00031
- viscosity ([3]; 303.15 K): 0.798 ± 0.04 mPa·s
- viscosity ([3]; 308.15 K): 0.719 ± 0.04 mPa·s
- viscosity ([3]; 313.15 K): 0.654 ± 0.04 mPa·s
- mass density ([3]; 313.15 K): 992.3 ± 1 kg/m3
- viscosity ([3]; 318.15 K): 0.595 ± 0.04 mPa·s
- mass density ([3]; 318.15 K): 990.3 ± 1 kg/m3
- viscosity ([3]; 323.15 K): 0.546 ± 0.04 mPa·s
- mass density ([3]; 323.15 K): 988.2 ± 1 kg/m3
- viscosity ([3]; 328.15 K): 0.506 ± 0.04 mPa·s
- mass density ([3]; 328.15 K): 985.9 ± 1 kg/m3
- viscosity ([3]; 333.15 K): 0.466 ± 0.04 mPa·s
- mass density ([3]; 333.15 K): 983.4 ± 1 kg/m3
- viscosity ([3]; 338.15 K): 0.435 ± 0.04 mPa·s
- mass density ([3]; 338.15 K): 980.8 ± 1 kg/m3
- viscosity ([3]; 343.15 K): 0.408 ± 0.04 mPa·s
- mass density ([3]; 343.15 K): 978 ± 1 kg/m3
